Measured values from patent publication US9266876B2 (Actelion Pharmaceuticals Ltd., priority 2012, dated 2016).

Assays:
CXCR3 = CXCR3 (Homo sapiens (Human), UniProt P49682); assay: Receptor internalization assay; assay type: cell-based; conditions: human whole blood; final CXCL10 concentration 9 nM; 30 min 37° C.; CXCR3 cell surface expression on CD3 positive cells, flow cytometer; read-out: Internalization IC50
Outline: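 In human whole blood, compounds were incubated with CXCL10 (9 nM final) for 30 min at 37 °C to drive receptor internalization, then stained with anti-CXCR3/CD3 antibodies and lysed of red cells. Flow cytometry measured mean surface CXCR3 fluorescence on CD3+ cells, and IC50 came from single-site dose-response fits.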

human CXCR3A = human CXCR3A (Homo sapiens (Human), UniProt P49682); assay: FLIPR assay; assay type: cell-based; conditions: CHO-K1 cells expressing the human CXCR3A coupled to Galpha(16); CXCL10 agonist 20 nM; Fluo-4-AM fluorescence; mean values if determined several times
Chain of human CXCR3A (P49682 whole entry): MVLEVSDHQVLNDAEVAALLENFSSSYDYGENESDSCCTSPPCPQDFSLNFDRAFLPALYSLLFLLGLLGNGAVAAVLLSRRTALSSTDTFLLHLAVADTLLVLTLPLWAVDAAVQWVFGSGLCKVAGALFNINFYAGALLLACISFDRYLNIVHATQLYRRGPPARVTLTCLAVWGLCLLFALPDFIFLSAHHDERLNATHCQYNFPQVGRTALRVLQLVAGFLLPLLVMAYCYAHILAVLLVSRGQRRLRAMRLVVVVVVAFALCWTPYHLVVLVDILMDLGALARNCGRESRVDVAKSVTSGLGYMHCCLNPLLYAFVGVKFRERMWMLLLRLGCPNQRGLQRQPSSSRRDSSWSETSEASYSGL
Outline: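 CHO-K1 cells expressing CXCR3A coupled to Gα16 were loaded with Fluo-4-AM for 1 h in Hepes-buffered HBSS, pH 7.4, with 5 mM probenecid. Compound dilutions were added on the FLIPR, followed by CXCL10 (added as a 20 nM solution). Baseline-subtracted peak fluorescence was fitted to a single-site curve for IC50.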

Chain of CXCR3 (P49682 whole entry): as above

Compound	IC50 (CXCR3)	IC50 (human CXCR3A)
C[C@@H]1CN(c2sc(C(F)(F)F)nc2-c2nc3ccccc3[nH]2)CCN1C(=O)Cc1ccccc1-n1cccn1 [Example 203, 1-{(R)-4-[4-(1H-Benzoimidazol-2-yl)-2-trifluoromethyl-thiazol-5-yl]-2-methyl-piperazin-1-yl}-2-(2-pyrazol-1-yl-phenyl)-ethanone]	2100 nM	5 nM
C[C@@H]1CN(c2sc(C(F)(F)F)nc2-c2nc3ccccc3[nH]2)CCN1C(=O)Cn1cc(Cl)cn1 [Example 175, 1-{(R)-4-[4-(1H-Benzoimidazol-2-yl)-2-trifluoromethyl-thiazol-5-yl]-2-methyl-piperazin-1-yl}-2-(4-chloro-pyrazol-1-yl)-ethanone]	227 nM	0.1 nM
O=C(Cn1ncc2ccccc21)N1CCN(c2scnc2-c2nc3ccccc3[nH]2)CC1 [Example 109, 1-{4-[4-(1H-Benzoimidazol-2-yl)-thiazol-5-yl]-piperazin-1-yl}-2-indazol-1-yl-ethanone]	1970 nM	16 nM
C[C@@H]1CN(c2scnc2-c2nc3ccccc3[nH]2)CCN1C(=O)Cn1cc(-c2ccccc2)nn1 [Example 188, 1-{(R)-4-[4-(1H-Benzoimidazol-2-yl)-thiazol-5-yl]-2-methyl-piperazin-1-yl}-2-(4-phenyl-[1,2,3]triazol-1-yl)-ethanone]	3820 nM	4 nM
C[C@@H]1CN(c2sc(C(F)(F)F)nc2-c2nc3ccccc3[nH]2)CCN1C(=O)Cn1cccn1 [Example 173, 1-{(R)-4-[4-(1H-Benzoimidazol-2-yl)-2-trifluoromethyl-thiazol-5-yl]-2-methyl-piperazin-1-yl}-2-pyrazol-1-yl-ethanone]	395 nM	0.5 nM
C[C@@H]1CN(c2sc(C(F)(F)F)nc2-c2nc3ccccc3n2C)CCN1C(=O)Cn1cccn1 [Example 184, 1-{(R)-2-Methyl-4-[4-(1-methyl-1H-benzoimidazol-2-yl)-2-trifluoromethyl-thiazol-5-yl]-piperazin-1-yl}-2-pyrazol-1-yl-ethanone]	3420 nM	53 nM
C[C@@H]1CN(c2sc(C(F)(F)F)nc2-c2nc3ccccc3[nH]2)CCN1C(=O)Cc1cccc(-n2nccn2)c1 [Example 201, 1-{(R)-4-[4-(1H-Benzoimidazol-2-yl)-2-trifluoromethyl-thiazol-5-yl]-2-methyl-piperazin-1-yl}-2-(3-[1,2,3]triazol-2-yl-phenyl)-ethanone]	2860 nM	2 nM
C[C@@H]1CN(c2scnc2-c2nc3ccccc3[nH]2)CCN1C(=O)Cn1cc(Cl)c2cccnc21 [Example 143, 1-{(R)-4-[4-(1H-Benzoimidazol-2-yl)-thiazol-5-yl]-2-methyl-piperazin-1-yl}-2-(3-chloro-pyrrolo[2,3-b]pyridin-1-yl)-ethanone]	723 nM	1 nM
Cc1nnc(CC(=O)N2CCN(c3sc(C(F)(F)F)nc3-c3nc4ccccc4[nH]3)C[C@H]2C)o1 [Example 195, 1-{(R)-4-[4-(1H-Benzoimidazol-2-yl)-2-trifluoromethyl-thiazol-5-yl]-2-methyl-piperazin-1-yl}-2-(5-methyl-[1,3,4]oxadiazol-2-yl)-ethanone]	2710 nM	8 nM
Cc1cc(C)nc(CC(=O)N2CCN(c3sc(C(F)(F)F)nc3-c3nc4ccccc4[nH]3)C[C@H]2C)c1 [Example 220]	2620 nM	19 nM
C[C@@H]1CN(c2sc(C(F)(F)F)nc2-c2nc3ccc(N4CCN(C)CC4)cc3[nH]2)CCN1C(=O)Cn1cccn1 [Example 179, 1-((R)-2-Methyl-4-{4-[6-(4-methyl-piperazin-1-yl)-1H-benzoimidazol-2-yl]-2-trifluoromethyl-thiazol-5-yl}-piperazin-1-yl)-2-pyrazol-1-yl-ethanone]	138 nM	2 nM

Now from value to compound:

IC50 (CXCR3)	IC50 (human CXCR3A)	Compound
547 nM	4 nM	C[C@@H]1CN(c2scnc2-c2nc3ccccc3[nH]2)CCN1C(=O)CN1C(=O)C(C)(C)c2ccccc21 [Example 151, 1-(2-{(R)-4-[4-(1H-Benzoimidazol-2-yl)-thiazol-5-yl]-2-methyl-piperazin-1-yl}-2-oxo-ethyl)-3,3-dimethyl-1,3-dihydro-indol-2-one]
517 nM	1 nM	C[C@@H]1CN(c2scnc2-c2nc3cc(Cl)ccc3[nH]2)CCN1C(=O)Cn1c(=O)oc2ccccc21 [Example 84, 3-(2-{(R)-4-[4-(5-Chloro-1H-benzoimidazol-2-yl)-thiazol-5-yl]-2-methyl-piperazin-1-yl}-2-oxo-ethyl)-3H-benzooxazol-2-one]
531 nM	23 nM	Cc1nc(C)n(CC(=O)N2CCN(c3sc(C(F)(F)F)nc3-c3nc4ccc(CCN5CCCC5)cc4[nH]3)C[C@H]2C)n1 [Example 244, 2-(3,5-Dimethyl-[1,2,4]triazol-1-yl)-1-((R)-2-methyl-4-{4-[6-(2-pyrrolidin-1-yl-ethyl)-1H-benzoimidazol-2-yl]-2-trifluoromethyl-thiazol-5-yl}-piperazin-1-yl)-ethanone]
633 nM	2 nM	Cn1c(=O)n(CC(=O)N2CCN(c3scnc3-c3nc4cc(C(F)(F)F)ccc4[nH]3)CC2)c2ccccc21 [Example 32, 1-Methyl-3-(2-oxo-2-{4-[4-(5-trifluoromethyl-1H-benzoimidazol-2-yl)-thiazol-5-yl]-piperazin-1-yl}-ethyl)-1,3-dihydro-benzoimidazol-2-one]
332 nM	1 nM	C[C@@H]1CN(c2sc(C(F)(F)F)nc2-c2nc3ccccc3[nH]2)CCN1C(=O)Cn1cnc(Br)n1 [Example 207, 1-{(R)-4-[4-(1H-Benzoimidazol-2-yl)-2-trifluoromethyl-thiazol-5-yl]-2-methyl-piperazin-1-yl}-2-(3-bromo-[1,2,4]triazol-1-yl)-ethanone]
458 nM	2 nM	N#Cc1cccc2ccn(CC(=O)N3CCN(c4scnc4-c4nc5ccccc5[nH]4)CC3)c12 [Example 61, 1-(2-{4-[4-(1H-Benzoimidazol-2-yl)-thiazol-5-yl]-piperazin-1-yl}-2-oxo-ethyl)-1H-indole-7-carbonitrile]
627 nM	28 nM	C[C@@H]1CN(c2sc(C(F)(F)F)nc2-c2nc3ccccc3[nH]2)CCN1C(=O)Cc1ccccc1-n1nccn1 [Example 200, 1-{(R)-4-[4-(1H-Benzoimidazol-2-yl)-2-trifluoromethyl-thiazol-5-yl]-2-methyl-piperazin-1-yl}-2-(2-[1,2,3]triazol-2-yl-phenyl)-ethanone]
459 nM	1 nM	C[C@@H]1CN(c2sc(Br)nc2-c2nc3ccccc3[nH]2)CCN1C(=O)Cn1cnc2cccnc21 [Example 80, 1-{(R)-4-[4-(1H-Benzoimidazol-2-yl)-2-bromo-thiazol-5-yl]-2-methyl-piperazin-1-yl}-2-imidazo[4,5-b]pyridin-3-yl-ethanone]
470 nM	1 nM	Cc1cnn(CC(=O)N2CCN(c3sc(C(F)(F)F)nc3-c3nc4ccccc4[nH]3)C[C@H]2C)c1 [Example 191, 1-{(R)-4-[4-(1H-Benzoimidazol-2-yl)-2-trifluoromethyl-thiazol-5-yl]-2-methyl-piperazin-1-yl}-2-(4-methyl-pyrazol-1-yl)-ethanone]
73 nM	1 nM	C[C@@H]1CN(c2sc(C(F)(F)F)nc2-c2nc3ccccc3[nH]2)CCN1C(=O)Cn1cnc2ccccc21 [Example 172, 2-Benzoimidazol-1-yl-1-{(R)-4-[4-(1H-benzoimidazol-2-yl)-2-trifluoromethyl-thiazol-5-yl]-2-methyl-piperazin-1-yl}-ethanone]
